± gives the standard deviation of the averaged measurements.
How the values were obtained:
ABIRATERONE = compound: C[C@]12CC[C@H](O)CC1=CC[C@@H]1[C@@H]2CC[C@]2(C)C(c3cccnc3)=CC[C@@H]12 [ABIRATERONE]; assay: surviving fraction relative to DMSO-only wells; higher = less growth inhibition; conditions: exposure time: 5 days
Summary of the method: (§1)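 A line counted only if its three screens reached replicate Pearson r >0.7 and median Z' >0.3. Tumour cells in log phase were seeded at 250–500 per well in 384-well plates and, after 24 hours, kept in continuous contact with inhibitors at 0.5, 1, 5, 10, 50, 100, 500 and 1000 nM for five days. Surviving fraction was taken from CellTiter-Glo luminescence relative to the median of DMSO-only wells.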

XAV-939 = compound: Oc1nc(-c2ccc(C(F)(F)F)cc2)nc2c1CSCC2 [XAV-939]; assay: as above; conditions: exposure time: 5 days
Summary of the method: as §1

Test System | surviving fraction (ABIRATERONE; 0.5 nM) | surviving fraction (ABIRATERONE; 1 nM) | surviving fraction (ABIRATERONE; 5 nM) | surviving fraction (ABIRATERONE; 10 nM) | surviving fraction (ABIRATERONE; 50 nM) | surviving fraction (ABIRATERONE; 100 nM) | surviving fraction (ABIRATERONE; 500 nM) | surviving fraction (ABIRATERONE; 1000 nM) | surviving fraction (XAV-939; 0.5 nM) | surviving fraction (XAV-939; 1 nM) | surviving fraction (XAV-939; 5 nM) | surviving fraction (XAV-939; 10 nM) | surviving fraction (XAV-939; 50 nM) | surviving fraction (XAV-939; 100 nM) | surviving fraction (XAV-939; 500 nM) | surviving fraction (XAV-939; 1000 nM)
G292 BONE | 1.02 ± 0.028 | 0.994 ± 0.03 | 1.06 ± 0.037 | 1.04 ± 0.026 | 1.05 ± 0.038 | 1.05 ± 0.018 | 1.03 ± 0.034 | 1.01 ± 0.029 | 0.788 ± 0.26 | 0.995 ± 0.045 | 0.96 ± 0.043 | 0.963 ± 0.066 | 0.818 ± 0.27 | 0.965 ± 0.04 | 0.917 ± 0.027 | 0.874 ± 0.046
HCC38 BREAST | 1.21 ± 0.22 | 1.24 ± 0.14 | 1.22 ± 0.31 | 1.29 ± 0.38 | 1.18 ± 0.41 | 1.32 ± 0.18 | 1.16 ± 0.12 | 1 ± 0.14 | 0.824 ± 0.32 | 0.996 ± 0.18 | 1.01 ± 0.2 | 1.07 ± 0.23 | 0.983 ± 0.034 | 0.925 ± 0.15 | 0.895 ± 0.085 | 0.855 ± 0.12
HCC70 BREAST | 1.1 ± 0.069 | 1.02 ± 0.088 | 1.09 ± 0.026 | 1.11 ± 0.055 | 1.15 ± 0.13 | 1.14 ± 0.017 | 1.03 ± 0.076 | 0.949 ± 0.098 | 1.02 ± 0.083 | 1.09 ± 0.11 | 1.07 ± 0.026 | 1.13 ± 0.067 | 1.13 ± 0.029 | 1.12 ± 0.11 | 0.871 ± 0.091 | 0.829 ± 0.12
HMLE3 BREAST | 0.965 ± 0.017 | 1.01 ± 0.04 | 1.04 ± 0.063 | 1.04 ± 0.051 | 1.12 ± 0.079 | 1.02 ± 0.084 | 1.02 ± 0.063 | 1.04 ± 0.04 | 0.921 ± 0.048 | 0.956 ± 0.028 | 0.97 ± 0.036 | 0.969 ± 0.059 | 0.986 ± 0.047 | 0.984 ± 0.078 | 0.775 ± 0.054 | 0.734 ± 0.037
HMT3552 BREAST | 1.05 | 1.02 | 1.01 | 1.09 | 1.08 | 1.07 | 1.32 | 1.24 | 1.1 | 1.12 | 1.1 | 1.02 | 1.18 | 1.1 | 1.07 | 1.09
HS57T BREAST | 1.06 ± 0.023 | 1.16 ± 0.059 | 1.12 ± 0.038 | 1.1 ± 0.03 | 1.24 ± 0.06 | 1.17 ± 0.071 | 1.08 ± 0.031 | 1.04 ± 0.1 | 1.07 ± 0.023 | 1.11 ± 0.083 | 1.06 ± 0.039 | 1.02 ± 0.057 | 1.09 ± 0.046 | 1.054 ± 0.0092 | 0.889 ± 0.017 | 0.843 ± 0.075
HS578T BREAST | 1.06 ± 0.16 | 0.858 ± 0.12 | 0.945 ± 0.12 | 0.924 ± 0.2 | 1.04 ± 0.091 | 0.996 ± 0.051 | 0.985 ± 0.065 | 0.94 ± 0.037 | 1.16 ± 0.15 | 1.03 ± 0.2 | 1.14 ± 0.064 | 1.33 ± 0.062 | 1.14 ± 0.13 | 1.21 ± 0.058 | 1.09 ± 0.069 | 0.972 ± 0.016

— the supplement of paper PMC6045584
